Assay results reported in US12685312B2, “Sulfonamide apyrase inhibitors” (Texas Crop Science, Inc., priority 2022, dated 2026).

tested on: apyrase; assay: Screen for apyrase inhibitors (Method 1, in vitro phosphate-release absorbance assay); assay type: biochemical; conditions: inhibitor conc at 1 mM stock, 1 hr room temperature, absorbance 630 nm; rounded average of two assay results
Procedure, shortened: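 Phosphate-release colorimetric assay (Windsor method) in 60 mM Hepes, 3 mM MgCl2, 3 mM CaCl2, 3 mM ATP, pH 6.5, with compound or DMSO control added. Released phosphate developed with ammonium molybdate and ascorbic acid/TCA, then stopped with citrate/acetic acid.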

Point of comparison: `O=C(Nc1cccc(NS(=O)(=O)c2ccc(Cl)cc2)c1)c1ccc2[nH]cnc2c1` [I-342, N-(3-((4-chlorophenyl)sulfonamido)phenyl)-1H-benzo[d]imidazole-5-carboxamide], “% Inhibition of Apyrase” value 63%. Against it:
- COc1ccc(NS(=O)(=O)c2ccc(NC(=O)c3ccc(Cl)cc3)cc2)cc1 [I-1001, 4-chloro-N-(4-(N-(4-methoxyphenyl)sulfamoyl)phenyl)benzamide] — lower, 16%
- Cc1cccc(NC(=O)c2cccc(NS(=O)(=O)c3ccc4c(c3)OCCO4)c2)c1C [I-320, 3-((2,3-dihydrobenzo[b][1,4]dioxine)-6-sulfonamido)-N-(2,3-dimethylphenyl)benzamide] — lower, 62%
- CC1Cc2ccccc2N1S(=O)(=O)c1cccc(C(=O)Nc2cccc(S(N)(=O)=O)c2)c1 (centres unmarked) [I-458, 3-((2-methylindolin-1-yl)sulfonyl)-N-(3-sulfamoylphenyl)benzamide] — lower, 60%
- CN(c1ccccc1)S(=O)(=O)c1cccc(NC(=O)c2ccc(Br)s2)c1 [I-706, 5-bromo-N-(3-(N-methyl-N-phenylsulfamoyl)phenyl)thiophene-2-carboxamide] — lower, 62%
- O=C(Nc1ccc2c(c1)OCCO2)c1ccc(C(=O)Nc2ccc3c(c2)OCCO3)cc1 [I-875, N1,N4-bis(2,3-dihydrobenzo[b][1,4]dioxin-6-yl)terephthalamide] — lower, 55%
- CC1Cc2ccccc2N1S(=O)(=O)c1cccc(C(=O)Nc2ccc3c(c2)OCO3)c1 (centres unmarked) [I-522, N-(benzo[d][1,3]dioxol-5-yl)-3-((2-methylindolin-1-yl)sulfonyl)benzamide] — lower, 55%
- O=C(Nc1ccc(F)cc1)c1ccc(NS(=O)(=O)c2ccc(Cl)c([N+](=O)[O-])c2)cc1 [I-902, 4-((4-chloro-3-nitrophenyl)sulfonamido)-N-(4-fluorophenyl)benzamide] — higher, 64%
- CCOC(=O)c1sc(NC(=O)c2cccc(S(=O)(=O)Nc3ccccc3F)c2)cc1C [I-432, ethyl 5-(3-(N-(2-fluorophenyl)sulfamoyl)benzamido)-3-methylthiophene-2-carboxylate] — higher, 66%
- Cc1cc(C)cc(NC(=O)c2cccc(S(=O)(=O)Nc3ccc4c(c3)OCO4)c2)c1 [I-179, 3-(N-(benzo[d][1,3]dioxol-5-yl)sulfamoyl)-N-(3,5-dimethylphenyl)benzamide] — higher, 72%
- Cc1n[nH]c(C)c1CCC(=O)Nc1cccc(NC(=O)c2cccc(S(=O)(=O)Nc3ccc(Br)cc3)c2)c1 [I-1009, 3-(N-(4-bromophenyl)sulfamoyl)-N-(3-(3-(3,5-dimethyl-1H-pyrazol-4-yl)propanamido)phenyl)benzamide] — lower, 26%
- CCc1cccc(NC(=O)c2ccc(S(=O)(=O)Nc3ccc(Cl)cc3)cc2)c1 [I-395, 4-(N-(4-chlorophenyl)sulfamoyl)-N-(3-ethylphenyl)benzamide] — lower, 51%
- O=C(Nc1ccc2c(c1)OCCCO2)c1cccc(S(=O)(=O)Nc2ccc3c(c2)OCCO3)c1 [I-573, N-(3,4-dihydro-2H-benzo[b][1,4]dioxepin-7-yl)-3-(N-(2,3-dihydrobenzo[b][1,4]dioxin-6-yl)sulfamoyl)benzamide] — lower, 50%
- CN(c1ccccc1)S(=O)(=O)c1ccccc1C(=O)N1CCCc2ccccc21 [I-810, N-methyl-N-phenyl-2-(1,2,3,4-tetrahydroquinoline-1-carbonyl)benzenesulfonamide] — higher, 75%
- O=C(Nc1cccc(S(=O)(=O)N2CCOCC2)c1)c1cccc(S(=O)(=O)N2CCc3ccccc32)c1 [I-527, 3-(indolin-1-ylsulfonyl)-N-(3-(morpholinosulfonyl)phenyl)benzamide] — lower, 55%
- O=C(Nc1nccs1)c1cccc(NS(=O)(=O)c2ccc(Br)cc2)c1 [I-661, 3-((4-bromophenyl)sulfonamido)-N-(thiazol-2-yl)benzamide] — lower, 26%
- COc1ccc2c(c1)CCCN2C(=O)c1cccc(S(=O)(=O)N2CCc3ccccc32)c1 [I-509, (3-(indolin-1-ylsulfonyl)phenyl)(6-methoxy-3,4-dihydroquinolin-1(2H)-yl)methanone] — lower, 56%
- O=C(c1cccc(S(=O)(=O)Nc2cccc(Cl)c2)c1)N1CCc2ccccc21 [I-542, N-(3-chlorophenyl)-3-(indoline-1-carbonyl)benzenesulfonamide] — lower, 54%
- COc1ccc(NS(=O)(=O)c2ccc(C(=O)Nc3ccc(F)cc3C)cc2)cc1 [I-416, N-(4-fluoro-2-methylphenyl)-4-(N-(4-methoxyphenyl)sulfamoyl)benzamide] — lower, 13%
- O=C(Nc1ccccc1OC(F)F)c1ccc(S(=O)(=O)Nc2ccccc2F)cc1 [I-383, N-(2-(difluoromethoxy)phenyl)-4-(N-(2-fluorophenyl)sulfamoyl)benzamide] — higher, 66%
- Cc1ccc(F)cc1NC(=O)c1cccc(S(=O)(=O)N2CCc3ccccc32)c1 [I-517, N-(5-fluoro-2-methylphenyl)-3-(indolin-1-ylsulfonyl)benzamide] — lower, 56%
- CSc1cccc(NC(=O)c2cccc(S(=O)(=O)N3c4ccccc4CC3C)c2)c1 (centres unmarked) [I-468, 3-((2-methylindolin-1-yl)sulfonyl)-N-(3-(methylthio)phenyl)benzamide] — lower, 59%
- O=C(Nc1cccc(S(=O)(=O)Nc2ccc(SC(F)F)cc2)c1)c1ccco1 [I-772, N-(3-(N-(4-((difluoromethyl)thio)phenyl)sulfamoyl)phenyl) furan-2-carboxamide] — lower, 6%
- CN(c1ccccc1)S(=O)(=O)c1ccccc1C(=O)Nc1ccc2c(c1)OCO2 [I-809, N-(benzo[d][1,3]dioxol-5-yl)-2-(N-methyl-N-phenylsulfamoyl)benzamide] — higher, 77%
- Cc1ccc(NS(=O)(=O)c2ccc(Cl)c(C(=O)N3CCc4ccccc43)c2)cc1C [I-459, 4-chloro-N-(3,4-dimethylphenyl)-3-(indoline-1-carbonyl)benzenesulfonamide] — lower, 60%
- O=C(Nc1cccc2ncccc12)c1cccc(NS(=O)(=O)c2cccs2)c1 [I-638, N-(quinolin-5-yl)-3-(thiophene-2-sulfonamido)benzamide] — lower, 57%
- CN(c1ccccc1)S(=O)(=O)c1ccc(C(=O)N2CC(=O)Nc3ccccc32)cc1 [I-890, N-methyl-4-(3-oxo-1,2,3,4-tetrahydroquinoxaline-1-carbonyl)-N-phenylbenzenesulfonamide] — lower, 32%
- Cc1cccc(NS(=O)(=O)c2ccc(C)c(C(=O)N3CCCc4ccccc43)c2)c1 [I-489, 4-methyl-3-(1,2,3,4-tetrahydroquinoline-1-carbonyl)-N-(m-tolyl)benzenesulfonamide] — lower, 58%
- COc1ccc(C(=O)Nc2cccc(S(=O)(=O)Nc3ccc(Br)cc3)c2)cc1OC [I-333, N-(3-(N-(4-bromophenyl)sulfamoyl)phenyl)-3,4-dimethoxybenzamide] — lower, 48%
